Results reported in ChEMBL document CHEMBL1201862, “PubChem BioAssay data set” (2004).
“And” between values parts separate entries of the source, which are not always exact repeats. Identical values can stand only once.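 96-well plates; 48 h exposure; 5 concentrations. Endpoints by linear interpolation between flanking doses. Not reached: highest tested concentration assigned. GI50 is the concentration that inhibits growth by half.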 The source made the active and inactive calls. Rule as the data show it: active = GI50 up to about 1.1 µM and inactive = higher.

What was measured:
Experiment in all cases: growth of human tumour cells (NCI), 48 h
[1] = system: 786-0
[2] = system: ACHN
[3] = system: COLO 205
[4] = system: HCT-116
[5] = system: HOP-92
[6] = system: Hs-578T
[7] = system: KM12
[8] = system: M14
[9] = system: MDA-N
[10] = system: NCI-H23
[11] = system: NCI-H460
[12] = system: NCI-H522
[13] = system: OVCAR-3
[14] = system: OVCAR-8
[15] = system: RXF 393
[16] = system: T47D
[17] = system: UO-31
[18] = system: IGROV-1
[19] = system: SK-MEL-28
[20] = system: SW-620

Measured: GI50

Cc1c(Cl)cccc1NC(=O)CC1Sc2ccccc2NC1=O (configuration not stated)
inactive: [1] 24 µM and 17.4 µM | [2] 23.7 µM and 23.5 µM | [3] 46.3 µM and 31.4 µM | [4] 13.9 µM and 15.8 µM | [5] 17.7 µM and 33 µM | [6] 2.99 µM | [7] 11 µM and 16.6 µM | [8] 32.3 µM and 22.6 µM | [9] 2.71 µM | [10] 35.9 µM and 24 µM | [11] 22.4 µM and 23.2 µM | [12] 27.7 µM and 21 µM | [13] 15.3 µM and 17.9 µM | [14] 16.4 µM and 20.8 µM | [15] 8.39 µM and 16 µM | [16] 25.5 µM | [17] 19.4 µM and 19.6 µM

C=CO/N=[N+](\[O-])N(CC)CC
inactive: [1] > 100 µM | [2] > 100 µM | [3] > 100 µM | [4] > 100 µM | [5] > 100 µM | [6] > 100 µM | [18] > 100 µM | [7] > 100 µM | [8] > 100 µM | [9] > 100 µM | [10] > 100 µM | [11] > 100 µM | [12] > 100 µM | [13] > 100 µM | [14] > 100 µM | [15] > 100 µM | [19] > 100 µM | [20] > 100 µM | [16] > 100 µM

CC(C)(CN)SCc1ccccc1
inactive: [1] > 100 µM | [2] > 100 µM | [3] > 100 µM | [4] > 100 µM | [5] > 100 µM | [6] > 100 µM | [18] > 100 µM | [7] > 100 µM | [8] > 100 µM | [9] > 100 µM | [11] > 100 µM | [12] > 100 µM | [13] > 100 µM | [14] > 100 µM | [15] > 100 µM | [19] > 100 µM | [20] > 100 µM | [16] > 100 µM | [17] > 100 µM

CCCCC1=C(C(=O)N2CCOCC2)C2(OCCO2)C1Cl (configuration not stated)
inactive: [1] 36.4 µM | [2] 20 µM | [3] 23.1 µM | [4] 41.7 µM | [5] 50.2 µM | [6] 30.1 µM | [18] 32.4 µM | [7] 20.7 µM | [8] 16.9 µM | [9] 14.8 µM | [10] 25.5 µM | [12] 27.1 µM | [14] 45.9 µM | [15] 29.5 µM | [19] 23 µM | [20] 31 µM | [16] 46 µM | [17] 56.6 µM

CCOC(=O)c1c(N2CCOCC2)ncn(-c2cccc(Cl)c2)c1=O
inactive: [1] > 100 µM | [2] > 100 µM | [3] > 100 µM | [4] > 100 µM | [5] > 100 µM | [6] > 100 µM | [18] > 100 µM | [7] > 100 µM | [8] > 100 µM | [9] > 100 µM | [10] > 100 µM | [11] > 100 µM | [12] > 100 µM | [13] > 100 µM | [14] > 100 µM | [15] > 100 µM | [19] > 100 µM | [20] > 100 µM | [16] > 100 µM

Clc1ccc(C2=CC(c3ccccc3)N3C(=N[C@H]4CCCC[C@@H]43)N2)cc1 (some centres not stated)
inactive: [1] 2.79 µM | [2] 5.24 µM | [3] 1.77 µM | [4] 3.03 µM | [5] 4.68 µM | [6] 3.12 µM | [18] 3.39 µM | [7] 2.07 µM | [8] 2.98 µM | [9] 6.05 µM | [10] 7.82 µM | [11] 2.88 µM | [13] 6.4 µM | [14] 2.7 µM | [15] 2.47 µM | [19] 2.79 µM | [20] 3.74 µM | [16] 6.4 µM | [17] 10.8 µM

C=C(C)C1CC/C(C)=C/CCC2(C)OC2CC/C(CO)=C\C1O (configuration not stated)
inactive: [1] > 100 µM | [2] > 100 µM | [3] 47.6 µM | [4] > 100 µM | [5] 7.28 µM | [6] 15.7 µM | [18] 68.1 µM | [7] > 100 µM | [8] 49.3 µM | [9] > 100 µM | [10] > 100 µM | [11] 42.7 µM | [13] > 100 µM | [14] > 100 µM | [15] > 100 µM | [19] > 100 µM | [20] > 100 µM | [16] > 100 µM | [17] > 100 µM

CC1(C)OC(=O)C(C#N)=C1C[n+]1ccccc1
inactive: [1] > 10 µM | [2] > 10 µM | [3] > 10 µM | [5] > 10 µM | [6] > 10 µM | [18] > 10 µM | [7] > 10 µM | [8] > 10 µM | [9] > 10 µM | [10] > 10 µM | [11] > 10 µM | [12] > 10 µM | [13] > 10 µM | [14] > 10 µM | [15] > 10 µM | [19] > 10 µM | [20] > 10 µM | [16] > 10 µM | [17] > 10 µM

COc1ccc(NC(=O)Oc2cc(C)c3ccc(=O)cc-3o2)c(OC)c1.COc1ccc(NC(=O)Oc2ccc3c(C)cc(=O)oc3c2)c(OC)c1
inactive: [1] > 100 µM | [2] > 100 µM | [3] > 100 µM | [4] > 100 µM | [6] > 100 µM | [18] > 100 µM | [7] 78.7 µM | [8] > 100 µM | [9] > 100 µM | [10] > 100 µM | [11] > 100 µM | [12] > 100 µM | [13] > 100 µM | [14] > 100 µM | [15] > 100 µM | [19] > 100 µM | [20] > 100 µM | [16] > 100 µM | [17] > 100 µM

O=C(Nc1ccc(Cl)cc1Cl)c1cc2nc3ccccc3c(=O)n2c2ccccc12
inactive: [1] > 10 µM | [4] > 10 µM | [5] > 10 µM | [6] > 10 µM | [18] > 10 µM | [7] > 10 µM | [8] > 10 µM | [9] > 10 µM | [10] > 10 µM | [11] > 10 µM | [12] > 10 µM | [13] > 10 µM | [14] > 10 µM | [15] > 10 µM | [19] > 10 µM | [20] > 10 µM | [16] > 10 µM | [17] > 10 µM

C=CCc1ccccc1CC1(OCC)OC(=O)c2ccccc21 (configuration not stated)
inactive: [1] > 100 µM | [2] > 100 µM | [3] 67.1 µM | [4] 41.2 µM | [5] 33.8 µM | [6] > 100 µM | [18] > 100 µM | [8] 66.1 µM | [9] 31.3 µM | [10] 56.5 µM | [11] 77.6 µM | [12] 67.8 µM | [13] 41.2 µM | [14] > 100 µM | [15] > 100 µM | [19] > 100 µM | [20] > 100 µM | [16] 76.9 µM | [17] > 100 µM

NC(=S)NS(=O)(=O)c1ccc(F)cc1F
inactive: [1] > 100 µM | [2] > 100 µM | [3] > 100 µM | [4] > 100 µM | [5] > 100 µM | [6] > 100 µM | [18] > 100 µM | [7] > 100 µM | [8] > 100 µM | [9] > 100 µM | [10] > 100 µM | [11] > 100 µM | [12] > 100 µM | [13] > 100 µM | [14] > 100 µM | [15] > 100 µM | [19] > 100 µM | [20] > 100 µM | [16] > 100 µM

CC(C)(C)OC(=O)Nc1nnc(S(N)(=O)=O)s1
inactive: [1] > 100 µM | [2] > 100 µM | [3] > 100 µM | [4] > 100 µM | [5] > 100 µM | [6] > 100 µM | [7] > 100 µM | [8] > 100 µM | [9] > 100 µM | [10] > 100 µM | [11] > 100 µM | [12] > 100 µM | [13] > 100 µM | [14] > 100 µM | [15] > 100 µM | [19] > 100 µM | [20] > 100 µM | [16] > 100 µM | [17] > 100 µM

C[N+]1(CCC[N+]2(C)CC3C4C=CC(CC4)C3C2)CCOCC1 (configuration not stated)
inactive: [1] > 100 µM | [2] > 100 µM | [3] > 100 µM | [4] > 100 µM | [5] > 100 µM | [6] > 100 µM | [18] > 100 µM | [7] > 100 µM | [8] > 100 µM | [9] > 100 µM | [10] > 100 µM | [12] > 100 µM | [13] > 100 µM | [14] > 100 µM | [15] > 100 µM | [19] > 100 µM | [20] > 100 µM | [16] > 100 µM | [17] > 100 µM
